Here are results for one compound from article PMC5075677 (Medical Gas Research, 2016).

For assay [1], the target named is T1, heme oxygenase-2 (Homo sapiens, UniProt P30519, C265A/C282A).
T1 sequence (P30519 1-316 C265A/C282A): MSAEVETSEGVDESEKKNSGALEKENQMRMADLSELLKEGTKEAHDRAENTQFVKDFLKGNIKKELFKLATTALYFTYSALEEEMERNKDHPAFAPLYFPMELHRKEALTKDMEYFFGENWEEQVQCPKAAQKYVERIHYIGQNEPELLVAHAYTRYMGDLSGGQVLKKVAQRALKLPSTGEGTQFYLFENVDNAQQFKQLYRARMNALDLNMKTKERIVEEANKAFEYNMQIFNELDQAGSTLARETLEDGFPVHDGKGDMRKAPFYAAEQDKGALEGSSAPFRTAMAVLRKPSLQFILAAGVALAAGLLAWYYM
In kind it is biochemical.

For assay [2], the target named is T2, heme oxygenase-2 (Homo sapiens, UniProt P30519).
T2 sequence (P30519 1-316): T1 sequence (P30519 1-316 C265A/C282A) with A265C, A282C
In kind it is biochemical.

Changes are numbered by the printed parent chain. Structures can show the parent of a compound that is named as a salt.

What is called IC50 is the concentration at which inhibition is half-maximal. A higher IC50 goes with weaker potency. With `c1ccc(CCn2c(CN3CCCC3)nc3ccccc32)cc1` [QC-2350, 1-(2-phenylethyl)-2-(pyrrolidin-1-ylmethyl)-1H-benzimidazole dihydrochloride], the IC50 at heme oxygenase-2 [1] stood at 29 µM; against heme oxygenase-2 [2], 20 µM.
